According to patent US12728139B2, “Methods of preparing purified atomic quantum clusters” (NANOGAP SUB-NM-POWDER, S.A., priority 2018, dated 2026):

Legend:
single nucleosomes = molecular target: T1, single nucleosomes (Homo sapiens, UniProt P62805+P68431+Q16778+Q7L7L0); test: Single-nucleosome destabilization, gel shift assay; format: biochemical; conditions: etoposide 60 μM or doxorubicin 20 μM 4 hours; Ag3-AQCs 83 ng/mL 30 minutes
T1 construct: purchased New England Biolabs, Ipswich, USA
Description: From each reaction, half of the sample was electrophoresed under non-denaturing conditions, and the gel was stained with ethidium bromide (left, upper panel) and silver (left, lower panel). The remaining portion of the sample was analysed to check that equal amounts of histones were loaded in all cases (right panel). The position of unbound DNA, assembled nucleosomes and histones are indicated. (b) Nucleosomes were incubated with etoposide or doxorubicin as in (a) or the indicated Ag3-AQC dilutions (initial concentration, AQCs 1:10=83 ng/mL). Samples were analysed by native polyacrylamide electrophoresis, and the gel was stained first with ethidium bromide (top) and subsequently with silver (bottom) to visualize histones. This image is representative of two independent experiments.
Single nucleosome preparations were obtained using the Epimark Nucleosome Assembly Kit (New England Biolabs, Ipswich, USA) following the dilution assembly protocol from the manufacturer.
For the gel shift assay, 5% non-denaturing polyacrylamide gels were prepared using TBE buffer. After a 1 hour preliminary run at 100 V, the reactions containing nucleosomes were mixed with DNA loading buffer, and the electrophoresis was performed at 100 V for 2 h. Gels were stained with ethidium bromide to visualize DNA, and the signal was captured using the Gel Doc XR system (Bio-Rad). […]

octamer = conditions: 25° C., ITC and fluorescence; cited from earlier work
A549 proliferating cells = test: STORM super-resolution imaging of chromatin organization; format: cell-based, human; conditions: Ag3-AQCs 55.61 ng/mL or AgNO3 5 μM, 30 min
Description: 1.5×10^4 A549 cells were plated on 8-well Lab-tek cover glass chamber (Nunc) and 24 hours later cells were synchronized in S phase by adding 0.8 mM hydroxyurea (H-8627, Sigma) to the culture medium. […] The medium was removed and replaced with complete medium containing EdU (20 μM) for 2 hours. Cells were then fixed and permeabilized with Methanol-Acetone (1:1) solution at 20° C. for 10 minutes and blocked (3% BSA+0.01% Triton X-100) for 1 hour at RT. Finally, cells were washed three times with PBS and stained with Alexa Fluor 647 following the instructions provided by the manufacturer (Click-iT® EdU Alexa Fluor®488 Imaging Kit, Thermo Fisher Scientific).
The chromatin was imaged using a commercial microscope system from Nikon Instruments (NSTORM). […]
STORM images were analysed and rendered as previously described in Bates et al. 2007. […]
Since the labelling density of the EdU was very high, all of the images were roughly normalized to the same number of localizations per μm^2 of the nucleus, by varying the number of frames used in the final reconstructed image. The percentage of non-zero pixels of the reconstructed images was then calculated in ImageJ, and the percentage of nuclear area covered by EdU also calculated. The density of chromatin per μm^2 was extracted by dividing the number of localizations (same for each recorded nucleus) over the chromatin-covered area.

A549 Luc-C8 cells = test: Luminescent cell viability assay; format: cell-based, human; conditions: 24 hours
Description: Data represent mean±SD of 2 independent experiments with 3 replicas per experiment. Mann Whitney test ((*) p<0.01).
After that, treatments were removed and 20 μL of lysis buffer (Promega) added to wells and incubated for 30 minutes, shacking. Lysates were then transferred to 1.5 mL tubes and centrifuged for 15 minutes at high speed.

A549 cells = test: Quantification of platinum bound to DNA (ICP-MS) in A549 cells; format: cell-based, human; conditions: proliferating A549 cells, CDDP 50 μM
Description: DNA-bound platinum was assessed as previously described in Comenge et al. PLoS One 2012, 7: e47562. Briefly, 5×10^5 A549, MCF7 or U87-luc cells were seeded in 60 mm diameter plates. […] After the treatment, the cells were washed twice with PBS, trypsinised and centrifuged. The supernatants were removed, and the cell pellets were stored at −20° C. overnight. […] After 24 hours, the animals were sacrificed, and the organs were removed. Small pieces (1-2 mm^3) of tumour (lung) and other organs (heart, liver, kidney, spleen, brain and bone marrow) were separated using a scalpel. From this point, the steps for DNA extraction are common to cells and tissue samples. After freezing overnight, cell or tissue pellets were suspended in 300 μL of lysis buffer (150 mM Tris pH 8; 100 mM EDTA pH 8; 100 mM NaCl; 0.5% SDS) and 10 μL of Proteinase K (20 μg/μL). […] The DNA concentration was determined using a NanoDrop 2000 spectrophotometer (Thermofisher, Spain). […] Finally, the amount of platinum was determined by mass spectrometry using an ICP-MS BRUCKER 820-MS with a low-flow glass Micromist nebulizer and a double-pass spray chamber with a Peltier cooling (3° C.) and quartz torch (Bruker Corp., Billerica, MA, USA).

[1] = test system: A549 orthotopic lung cancer; test: Orthotopic lung cancer model; conditions: CDDP 4 mg/kg intravenously, up to 37 days
Description: (a) Tumour growth measured in vivo by luminescence (IVIS® Spectrum).
A suspension of 1×10^6 non-small cell lung carcinoma luciferase expressing cells (A549 Luc-C8 Bioware® cell line) in PBS (50 μL) was injected through the intercostal space into the left lung of athymic nude mice. During this procedure, mice were anaesthetized using 4% isoflurane inhalation. To follow tumour growth, luciferin was injected into the intraperitoneal cavity at a dose of 150 mg/kg body weight approximately 5 minutes before imaging. Luciferase bioluminescence was imaged under vaporized isofluran anaesthesia using an IVIS® Living Image® System (Caliper Life Sciences, Hopkinton, MA, USA) that allowed monitoring of both the primary tumour growth and cancer cell dissemination in a semi quantitative fashion. After in vivo imaging for several days (up to 37 days), the mice were sacrificed, and protein extracts were obtained from different organs to quantify luciferase activity.

SMILES | IC5 (A549 Luc-C8 cells) | IC25 (A549 Luc-C8 cells) | IC50 (A549 Luc-C8 cells) | IC75 (A549 Luc-C8 cells) | further results
COc1cc([C@@H]2c3cc4c(cc3[C@@H](O[C@@H]3O[C@@H]5CO[C@@H](C)O[C@H]5[C@H](O)[C@H]3O)[C@H]3COC(=O)[C@H]23)OCO4)cc(OC)c1O [etoposide] |  |  |  |  | Dissociation of single nucleosomes (single nucleosomes): has no effect
CC[N+](C)(CC)CCC[n+]1c(-c2ccccc2)c2cc(N)ccc2c2ccc(N)cc21.[I-].[I-] [IP, Propidium iodide] |  |  |  |  | Formation constant of complex with octamer (octamer): 140000 M⁻¹
O=[N+]([O-])[O-].[Ag+] [AgNO3, Silver nitrate] |  |  |  |  | Chromatin compaction (STORM images) (A549 proliferating cells): did not affect chromatin compaction
O=C1[O][Pt]2([NH][C@@H]3CCCC[C@H]3[NH]2)[O]C1=O [OXA, Oxaliplatin] | 2.5 µM | 12.5 µM | 50 µM | 200 µM | 
COc1cccc2c1C(=O)c1c(O)c3c(c(O)c1C2=O)C[C@@](O)(C(=O)CO)C[C@@H]3O[C@H]1C[C@H](N)[C@H](O)[C@H](C)O1 [DOX, Doxorubicin] |  |  |  |  | Dissociation of single nucleosomes (single nucleosomes): dissociated nucleosomes; Increase of amount of CDDP bound to DNA on co-administration with CDDP (A549 cells): did not increase CDDP binding to DNA
N.N.O=C([O-])C1(C(=O)[O-])CCC1.[Pt+2] [CBDCA, Carboplatin] | 0.25 µM | 0.5 µM | 1000 µM | 2000 µM | 
[NH2][Pt]([NH2])([Cl])[Cl] [CDDP, Cisplatin] | 5 µM | 10 µM | 50 µM | 100 µM | Tumour growth in vivo (bioluminescence) [1]: significantly reduced the growth of tumours
